Data from patent US20070117814A1, “Fungicidal mixtures” (Basf Aktiengesellschaft, priority 2003, published 2007).

Test system: Plasmopara viticola
Assay: activity against peronospora of grapevines caused by Plasmopara viticola (protective spray treatment of potted vines)
Assay type: in vivo, Plasmopara viticola on grapevines
Settings: individual active compound, Abbot's formula, untreated control 92% infection
Protocol: The active compounds, separately or jointly, were prepared as a stock solution comprising 0.25% by weight of active compound in acetone or DMSO. 1% by weight of the emulsifier Uniperol® EL (wetting agent having emulsifying and dispersant action based on ethoxylated alkylphenols) was added to this solution, and the mixture was diluted with water to the desired concentration.
Use example—activity against peronospora of gravevines caused by Plasmopara viticola
Leaves of potted vines were sprayed to runoff point with an aqueous suspension having the concentration of active compound stated below. The next day, the undersides of the leaves were inoculated with an aqueous sproangal suspension of Plasmopara viticola. The grapevines were then initially placed in a water-vapor-saturated chamber at 24° C. for 48 hours and then in a greenhouse at 20-30° C. for 5 days. After this period of time, the plants were again placed in a humid chamber for 16 hours to promote sporangiophore eruption. The extent of the development of the disease on the undersides of the leaves was then determined visually.
The visually determined percentages of infected leaf areas were converted into efficacies in % of the untreated control:
The efficacy (E) is calculated as follows using Abbot's formula: E=(1−α/β)·100 • α corresponds to the fungicidal infection of the treated plants in % and • β corresponds to the fungicidal infection of the untreated (control) plants in %
An efficacy of 0 means that the infection level of the treated plants corresponds to that of the untreated control plants; an efficacy of 100 means that the treated plants were not infected.
The expected efficacies of mixtures of active compounds were determined using Colby's formula (Colby, S. R. “Calculating synergistic and antagonistic responses of herbicide combinations”, Weeds, 15, 20-22, 1967) and compared with the observed efficacies.
Colby's formula: E=x+y−x·y/100 • E expected efficacy, expressed in % of the untreated control, when using the mixture of the active compounds A and B at the concentrations a and b • x efficacy, expressed in % of the untreated control, when using the active compound A at the concentration a
y efficacy, expressed in % of the untreated control, when using the active compound B at the concentration b

Molecule | Efficacy in % of the untreated control (4 ppm in the spray liquor) [%] | Efficacy in % of the untreated control (16 ppm in the spray liquor) [%] | Efficacy in % of the untreated control (63 ppm in the spray liquor) [%]
2,6-dinitro-4-octylphenyl crotonate und 2,4-dinitro-6-octylphenyl crotonate [II] | 2 | 2 | 2
CC1CCN(c2c(-c3c(F)cc(F)cc3F)c(Cl)nc3ncnn23)CC1 [I, 5-chloro-7-(4-methylpiperidin-1-yl)-6-(2,4,6-trifluorophenyl)-[1,2,4]triazolo[1,5-a]pyrimidine] |  | 56 | 
